IC50 data for 5 compounds are collected here from patent US9603889B2, “IAP antagonists” (BRISTOL-MYERS SQUIBB COMPANY, priority 2012, dated 2017).

Read-outs that look alike come from different tables or passages of the source.

The target of this assay is XIAP BIR3 (N-His-Tb-BIR3(241-356, XIAP)) (Homo sapiens (Human), UniProt P98170). It is filed as binding. The following applies: read-out: XIAP BIR3 FPA IC50.
The mark [1] stands for this setting: 130 nM N-His-Tb-BIR3(241-356, XIAP), 1.4 nM fluoresceinated modified SMAC peptide, 60 minutes room temperature.

Sequence of XIAP BIR3 (N-His-Tb-BIR3(241-356, XIAP)) (P98170 241-356): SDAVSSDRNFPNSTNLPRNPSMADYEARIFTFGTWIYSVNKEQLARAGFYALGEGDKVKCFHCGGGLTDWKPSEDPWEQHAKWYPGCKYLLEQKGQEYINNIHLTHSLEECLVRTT

In general, IC50 refers to the concentration that inhibits the measured activity by half. With `CN[C@@H](C)C(=O)N[C@H](C(=O)N1C[C@@H](NC(=O)n2ccc3cc(CN(C(=O)[C@@H]4Cc5ccccc5CN4C(=O)[C@@H](NC(=O)[C@H](C)NC)C(C)(C)C)C(COC)c4ccccc4)ccc32)C[C@H]1C(=O)N[C@@H]1CCCc2ccccc21)C(C)(C)C` (stereo in doubt) [Example 9, (S)-2-((S)-3,3-Dimethyl-2-((S)-2-(methylamino)propanamido)butanoyl)-N-((1-(((3S,5S)-1-((S)-3,3-dimethyl-2-((S)-2-(methylamino)propanamido)butanoyl)-5-(((R)-1,2,3,4-tetrahydronaphthalen-1-yl)carbamoyl)pyrrolidin-3-yl)carbamoyl)-1H-indol-5-yl)methyl)-N-((S)-2-methoxy-1-phenylethyl)-1,2,3,4-tetrahydroisoquinoline-3-carboxamide], the IC50 under setting [1] was found to be 130 nM.

Regarding `CNC(C)C(=O)N[C@H](C(=O)N1C[C@@H](NC(=O)c2ccc(C(=O)N(C[C@@H]3Cc4ccccc4CN3C(=O)[C@@H](NC(=O)[C@H](C)NC)C(C)(C)C)[C@H](C)Cc3ccccc3F)cc2)C[C@H]1C(=O)N[C@@H]1CCCc2ccccc21)C(C)(C)C` (stereo in doubt) [Example 17, N^1-(((S)-2-((S)-3,3-dimethyl-2-((S)-2-(methylamino)propanamido)butanoyl)-1,2,3,4-tetra-hydroisoquinolin-3-yl)methyl)-N^4-((3S,5S)-1-((S)-3,3-dimethyl-2-((S)-2-(methyl-amino)propanamido)butanoyl)-5-(((R)-1,2,3,4-tetrahydro-naphthalen-1-yl)carbamoyl)pyrrolidin-3-yl)-N^1-((R)-1-(2-fluorophenyl)propan-2-yl) terephthalamide], the IC50 under setting [1] came out at 100 nM.

Take `CN[C@@H](C)C(=O)N[C@H](C(=O)N1CC(NC(=O)c2cccc(CN(C(=O)[C@@H]3Cc4ccccc4CN3C(=O)[C@@H](NC(=O)[C@H](C)NC)C(C)(C)C)C(COC)c3ccccc3)c2)C[C@H]1C(=O)NC1CCCc2ccccc21)C(C)(C)C` (stereo in doubt) [Example 39, (S)-2-((S)-3,3-Dimethyl-2-((S)-2-(methylamino)propanamido)butanoyl)-N-(3-(((3S,5S)-1-((S)-3,3-dimethyl-2-((S)-2-(methylamino)propanamido)butanoyl)-5-(((R)-1,2,3,4-tetrahydronaphthalen-1-yl)carbamoyl)pyrrolidin-3-yl)carbamoyl)benzyl)-N-((S)-2-methoxy-1-phenylethyl)-1,2,3,4-tetrahydroisoquinoline-3-carboxamide]: the concentration for half-maximal inhibition (IC50) under setting [1] is 80 nM.

Consider `CN[C@@H](C)C(=O)N[C@H](C(=O)N1CC(NC(=O)CN(C(=O)[C@@H]2Cc3ccccc3CN2C(=O)[C@@H](NC(=O)[C@H](C)NC)C(C)(C)C)C(COC)c2ccccc2)C[C@H]1C(=O)NC1CCCc2ccccc21)C(C)(C)C` (stereo in doubt) [Example 40, (S)-2-((S)-3,3-Dimethyl-2-((S)-2-(methylamino)propanamido)butanoyl)-N-(2-(((3S,5S)-1-((S)-3,3-dimethyl-2-((S)-2-(methylamino)propanamido)butanoyl)-5-(((R)-1,2,3,4-tetrahydronaphthalen-1-yl)carbamoyl)pyrrolidin-3-yl)amino)-2-oxoethyl)-N-((S)-2-methoxy-1-phenylethyl)-1,2,3,4-tetrahydroisoquinoline-3-carboxamide], for which the IC50 came out at 60 nM.

As for `CN[C@@H](C)C(=O)N[C@H](C(=O)N1C[C@@H](NC(=O)c2ccc(CN(CCc3ccccc3)C(=O)[C@@H]3Cc4ccccc4CN3C(=O)[C@@H](NC(=O)[C@H](C)NC)C(C)(C)C)cc2)C[C@H]1C(=O)N[C@@H]1CCCc2ccccc21)C(C)(C)C` [Example 2, (S)-2-((S)-3,3-Dimethyl-2-((S)-2-(methylamino)propanamido)butanoyl)-N-(4-(((3S,5S)-1-((S)-3,3-dimethyl-2-((S)-2-(methylamino)propanamido)butanoyl)-5-(((R)-1,2,3,4-tetrahydronaphthalen-1-yl)carbamoyl)pyrrolidin-3-yl)carbamoyl)benzyl)-N-phenethyl-1,2,3,4-tetrahydroisoquinoline-3-carboxamide], the half-maximal inhibitory concentration (IC50) under setting [1] stood at 30 nM.
